This is an account of results in paper PMC8765320, “Identification of a Proteasome-Targeting Arylsulfonamide with Potential for the Treatment of Chagas’ Disease” (Antimicrobial Agents and Chemotherapy, 2022).

Where two headings read alike, the source gives them in different places.

Data set [1] relates to chymotrypsin-like activity of the T. cruzi proteasome. Description: Proteasome chymotrypsin-like activity luminescence assay. The format is biochemical, Trypanosoma cruzi. The following applies: at concentrations up to and including 3.3 μM. The procedure:
Initially, the impact of compound 1 on the chymotrypsin-like proteolytic activity of the proteasome was assessed using a commercially available indirect enzyme-based luminescent assay. In this assay, activity is monitored in proteasome-enriched T. cruzi epimastigote lysates using Suc-LLVY-aminoluciferin as a substrate ([16]). […] Thus, an alternative route to determine the impact of this arylsulfonamide compound on T. cruzi proteasome function was required.
The effect of inhibitors on the chymotrypsin-like activity of the T. cruzi proteasome was assessed by using a luminescence-based assay, as previously described ([21]).

The subject of a further data set is T. cruzi epimastigotes. Description: T. cruzi epimastigote drug sensitivity assay (resazurin). The following applies: Trypanosoma cruzi. The format is cell-based, Trypanosoma cruzi. The procedure: To examine the effects of test compounds on the growth of T. cruzi epimastigotes, mid-log-phase parasites were seeded into 96-well plates at a cell density of 5 × 10^5 cells ml^−1. Cells were exposed to test compounds over a range of concentrations (2-fold serial dilutions). Cells were incubated for 4 days, and then 20 μl of 2.5 mM resazurin was added to each well, before measuring the fluorescence (excitation, 528 nm; emission, 590 nm), following a further 24 h of incubation. […] In this equation, [I] represents the inhibitor concentration, and m is the slope factor. Experiments were repeated at least two times, and the data are presented as means plus the standard deviations.

In data set [2] the test system is T. cruzi malic enzyme (cTcME). Kind of data set: Malic enzyme assay in clarified epimastigote lysates (NADPH production, 340 nm). The format is biochemical, Trypanosoma cruzi. The source says: Malic enzyme (ME) catalyzes the oxidative decarboxylation of malate to pyruvate with the concomitant reduction of NAD(P)^+ to NAD(P)H. In light of our TPP studies, we next sought to determine whether the binding of compound 1 to cTcME inhibits enzymatic activity. The ME-dependent production of NADPH was monitored in clarified lysates of T. cruzi epimastigotes at 340 nm after the addition of malate. In the first instance, this assay was validated using ATR-073, an established inhibitor of cTcME ([27]). […] Similarly, preincubation of lysates with 20 μM and 1 μM concentrations of compound 1 inhibited ME activity by 96 and 68%, respectively (Fig. 4C). […] It should be noted that ATR-073 and compound 1 are structurally similar, both being substituted N-phenyl aryl sulfonamides, this common moiety constituting the pharmacophore of this chemical series.
Logarithmic T. cruzi epimastigotes were harvested (1,690 × g, 10 min, 4°C), washed once in ice-cold phosphate-buffered saline, and resuspended at 2 × 10^9 cells ml^−1 in lysis buffer (10 mM phosphate buffer [pH 7.2], 10 mM EDTA, 5 mM benzamidine, 5 mM phenanthroline, 0.1 mM phenylmethylsulfonyl fluoride) containing 1 mg ml^−1 digitonin, followed by incubation at 28°C for 10 min. The resulting lysate was then centrifuged (13,000 × g, 10 min, 4°C), and the supernatant was harvested and stored on ice. The protein concentration of this clarified lysate was determined by using a standard Bio-Rad protein assay.
The activity of malic enzyme was assayed as previously described ([42]), with minor modifications. T. cruzi clarified lysate (30 μl) was added to a reaction mixture (500 μl final volume) containing 50 mM Tris-HCl buffer (pH 7.6), 1 mM MnCl2, and 0.12 mM NADP^+. Reactions were initiated by the addition of 5 mM L-malate. The reduction of NADP^+ was monitored at 340 nm using a UV-2401 spectrophotometer (Shimadzu). To monitor the effect of test compounds on the activity of malic enzyme, compounds (1 and 20 μM) were preincubated for 10 min with the lysate in the reaction mixture. DMSO (0.2%) was used as control. All enzymatic activities were calculated as Δabs min^−1 mg^−1 of protein.

The test system of the next data set is Chagas' disease. The settings on record: cited from earlier work.
For another data set, the system named is T. cruzi. The settings on record: higher doses given in pulses over prolonged periods; cited from earlier work.

As for `CCC(C)NC(=O)c1ccccc1NS(=O)(=O)c1ccc2ccccc2c1` (stereo not shown) [ATR-073], the “effect on the chymotrypsin-like activity of the proteasome” value in data set [1] is listed as “no effect”. Moreover, the EC50 – broadly, the concentration needed to bring the measured effect to its halfway point – worked out at 49 ± 29 µM in the data set on T. cruzi epimastigotes (WT, Fig. S3B, one biological replicate); 51 ± 18 µM in the data set with T. cruzi epimastigotes (compound 2-Res V cells (so in the source), Fig. S3B, one biological replicate, read-out: EC50); 34 ± 1 µM in the data set with T. cruzi epimastigotes (epimastigotes, cell line Wild-type, weighted mean, n ≥ 3, read-out: ATR-073 EC50 values); 32 ± 2 µM in the data set with T. cruzi epimastigotes (epimastigotes, cell line cTcME OE, weighted mean, n ≥ 3, read-out: ATR-073 EC50 values). In addition, the “reduction in ME activity” value in data set [2] (preincubation of lysates with 1 μM) came out at 63%; in data set [2] (preincubation of lysates with 20 μM), 96%.

Take `O=C(Cn1ccnc1[N+](=O)[O-])NCc1ccccc1` [benznidazole]: the “interruption or discontinuation of treatment due to severe toxic side effects” value with Chagas' disease was ≤ 30 % of cases. Further, the individuals cured result with Chagas' disease (prolonged treatment during the acute stage) is recorded as “up to 70%”. The “outcome of modified treatment regimen in mouse models of infection” value with T. cruzi is “sterile parasitological cure”.
